Measurements published in US11098033B2, “Ku inhibitors and their use” (INDIANA UNIVERSITY RESEARCH AND TECHNOLOGY CORPORATION, priority 2016, dated 2021).
Several values for one entry are separate records, joined by “and”; a condition that tells them apart may be missing. Equal entries are not always repeated.

What follows are molecules tested against T1, Recombinant human Ku heterodimer (Homo sapiens, UniProt P12956+P13010) (assay: Ku-DNA binding assay). Details: Table 1, purchased second generation inhibitors; several values in a cell = separate determinations; read-out: IC50.
T1 construct: made in house; host or cells: insect cells infected with recombinant baculovirus
Source text: Ku is a DNA end-binding protein that is essential for the repair of DNA double strand breaks via the NHEJ pathway. The mechanism of DNA binding by Ku is via a toroid structure that encircles double-stranded DNA from a terminus.

T1 sequence (P12956 whole entry): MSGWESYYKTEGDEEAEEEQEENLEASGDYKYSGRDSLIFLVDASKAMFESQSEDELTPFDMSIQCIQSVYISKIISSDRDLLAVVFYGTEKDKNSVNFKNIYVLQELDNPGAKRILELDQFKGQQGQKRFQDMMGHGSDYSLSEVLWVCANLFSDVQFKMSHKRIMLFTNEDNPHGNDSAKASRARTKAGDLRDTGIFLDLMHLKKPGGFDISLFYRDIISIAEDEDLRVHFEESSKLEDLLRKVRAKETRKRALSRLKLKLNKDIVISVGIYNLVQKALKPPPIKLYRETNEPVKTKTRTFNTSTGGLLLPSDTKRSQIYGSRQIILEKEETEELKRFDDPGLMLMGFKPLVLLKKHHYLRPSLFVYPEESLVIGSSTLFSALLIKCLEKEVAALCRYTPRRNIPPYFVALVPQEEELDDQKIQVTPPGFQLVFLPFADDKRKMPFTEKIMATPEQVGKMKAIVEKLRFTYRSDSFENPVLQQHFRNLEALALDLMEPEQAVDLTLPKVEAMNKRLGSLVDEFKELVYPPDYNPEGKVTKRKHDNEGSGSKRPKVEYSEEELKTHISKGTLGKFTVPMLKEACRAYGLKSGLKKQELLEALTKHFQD
T1 sequence (P13010 whole entry): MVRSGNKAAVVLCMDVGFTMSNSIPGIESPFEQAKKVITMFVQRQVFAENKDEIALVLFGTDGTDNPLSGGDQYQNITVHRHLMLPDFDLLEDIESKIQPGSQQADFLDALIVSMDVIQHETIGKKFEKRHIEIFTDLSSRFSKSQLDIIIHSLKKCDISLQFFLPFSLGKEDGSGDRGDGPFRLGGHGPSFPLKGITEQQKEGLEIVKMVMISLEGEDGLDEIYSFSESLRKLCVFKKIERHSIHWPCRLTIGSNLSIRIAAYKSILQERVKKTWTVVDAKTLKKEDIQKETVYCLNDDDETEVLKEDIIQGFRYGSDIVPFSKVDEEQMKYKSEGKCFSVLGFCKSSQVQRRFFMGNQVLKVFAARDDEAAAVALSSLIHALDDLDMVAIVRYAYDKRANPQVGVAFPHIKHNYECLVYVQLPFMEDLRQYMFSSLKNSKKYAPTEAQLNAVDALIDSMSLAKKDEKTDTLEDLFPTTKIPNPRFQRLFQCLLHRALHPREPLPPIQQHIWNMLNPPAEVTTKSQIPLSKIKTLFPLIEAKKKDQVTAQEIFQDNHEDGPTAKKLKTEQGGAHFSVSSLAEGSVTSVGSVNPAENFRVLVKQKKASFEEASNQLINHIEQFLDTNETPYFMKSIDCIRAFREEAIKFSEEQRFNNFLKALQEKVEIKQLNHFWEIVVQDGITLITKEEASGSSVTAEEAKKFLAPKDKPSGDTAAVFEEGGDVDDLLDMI

Question: CC1=NN(c2cccc(C(=O)O)c2)C(=O)/C1=C\c1ccc(-c2ccc(C(=O)O)cc2)o1 [compound 2513, reference compound] was tested. Which IC50 did it give?
Answer: Its IC50 is 150 µM.

Question: Which IC50 does the source give for CCOC(=O)c1cccc(-c2ccc(/C=C3\C(=O)N(c4ccc(Cl)c(C(=O)O)c4)N=C3C)o2)c1 [compound 3278, reference compound] here?
Answer: Its IC50 is 4.3 µM and 8.1 µM.

Question: With COc1cc([N+](=O)[O-])ccc1-c1ccc(/C=C2\C(=O)N(c3cccc(C(=O)O)c3)N=C2C)o1 [compound 0814, reference compound] as the molecule, how does the IC50 read?
Answer: Its IC50 is 190 µM.

Question: For CCOC(=O)c1cccc(-c2ccc(/C=C3\C(=O)N(c4cccc(C(=O)O)c4)N=C3C)o2)c1 [compound 2714, reference compound], which IC50 is on record?
Answer: The IC50 was 9.1 µM.

Question: CC1=NN(c2ccc(Cl)c(C(=O)O)c2)C(=O)/C1=C\c1ccc(-c2cccc(C(=O)OC(C)C)c2)o1 [compound 3315, reference compound] was tested. Which IC50 did it give?
Answer: The IC50 was 31 µM and 5.7 µM.

Question: CC1=NN(c2cccc(C(=O)O)c2)C(=O)/C1=C\c1ccc(-c2ccccc2C(=O)O)o1 [compound 0949, reference compound] was tested. Which IC50 did it give?
Answer: The IC50 was 91 µM.

Question: C#CCOC(=O)c1cccc(-c2ccc(/C=C3\C(=O)N(c4ccc(Cl)c(C(=O)O)c4)N=C3C)o2)c1 [compound 7026, reference compound] was tested. Which IC50 did it give?
Answer: Its IC50 is 16.9 µM.

Question: How did the IC50 turn out when CCOC(=O)c1cc(-c2ccc(/C=C3\C(=O)N(c4cccc(C(=O)O)c4)N=C3C)o2)ccc1Cl [compound 2733, reference compound] was run?
Answer: Its IC50 is 4.2 µM and 9 µM.

Same assay, conditions: Table 2, synthesized derivatives; several values in a cell = separate determinations; read-out: IC50

Question: Which IC50 does the source give for CCOC(=O)c1ccc(N2N=C(C)/C(=C/c3ccc(-c4ccc(Cl)c(C(=O)Nc5cccc(OC)c5)c4)s3)C2=O)cc1 [NG-03-235, Ethyl (Z)-4-(4-((5-(4-chloro-3-((3-methoxyphenyl)carbamoyl)phenyl)thiophen-2-yl)methylene)-3-methyl-5-oxo-4,5-dihydro-1H-pyrazol-1-yl)benzoate] here?
Answer: Its IC50 is 8.75 µM.

Question: How did the IC50 turn out when CC1=NN(c2cccc(C(=O)O)c2)C(=O)C1Cc1ccc(-c2ccc(Cl)c(C(=O)NCC3CC3)c2)o1 (stereo not shown) [NG-01-72, 3-(4-((5-(4-Chloro-3-((cyclopropylmethyl)carbamoyl)phenyl)furan-2-yl)methyl)-3-methyl-5-oxo-4,5-dihydro-1H-pyrazol-1-yl)benzoic acid] was run?
Answer: The IC50 was 10 µM.

Question: With COc1cccc(NC(=O)c2cc(-c3ccc(/C=C4\C(=O)N(c5ccc(C(=O)O)cc5)N=C4C)s3)ccc2Cl)c1 [NG-03-236, (Z)-4-(4-((5-(4-Chloro-3-((3-methoxyphenyl)carbamoyl)phenyl)thiophen-2-yl)methylene)-3-methyl-5-oxo-4,5-dihydro-1H-pyrazol-1-yl)benzoic acid] as the molecule, how does the IC50 read?
Answer: The IC50 was 10 µM.

Question: Which IC50 does the source give for COc1cccc(NC(=O)c2cc(-c3ccc(/C=C4\C(=O)N(c5cccc(-c6nnn[nH]6)c5)N=C4C)o3)ccc2Cl)c1 [NG-02-201/ NG-03-244] here?
Answer: Its IC50 is 4 µM.

Question: How did the IC50 turn out when COc1cccc(NC(=O)c2cc(-c3ccc(CC4C(=O)N(c5ccc(C(=O)O)cc5)N=C4C)o3)ccc2Cl)c1 (stereo not shown) [NG-03-188, 4-(4-((5-(4-Chloro-3-((3-methoxyphenyl)carbamoyl)phenyl)furan-2-yl)methyl)-3-methyl-5-oxo-4,5-dihydro-1H-pyrazol-1-yl)benzoic acid] was run?
Answer: Its IC50 is 12.5 µM and 6 µM.

Question: For CC1=NN(c2cccc(C(=O)O)c2)C(=O)/C1=C\c1ccc(-c2ccc(Cl)c(C(=O)NCC3CC3)c2)o1 [NG-01-70, (Z)-3-(4-((5-(4-Chloro-3-((cyclopropylmethyl)carbamoyl)phenyl)furan-2-yl)methylene)-3-methyl-5-oxo-4,5-dihydro-1H-pyrazol-1-yl)benzoic acid], which IC50 is on record?
Answer: The IC50 was 25 µM and > 50 µM.

Question: How did the IC50 turn out when CC1=NN(c2cccc(C(=O)O)c2)C(=O)/C1=C\c1ccc(-c2ccc(Cl)c(C(=O)NCC3CC3)c2)s1 [NG-03-226, (Z)-3-(4-((5-(4-Chloro-3-((cyclopropylmethyl)carbamoyl)phenyl)thiophen-2-yl)methylene)-3-methyl-5-oxo-4,5-dihydro-1H-pyrazol-1-yl)benzoic acid] was run?
Answer: Its IC50 is 7 µM.

Question: With CC1=NN(c2cccc(C(=O)O)c2)C(=O)/C1=C\c1ccc(-c2ccc(Cl)c(C(=O)NCc3ccccc3)c2)o1 [NG-03-270, (Z)-3-(4-((5-(3-(Benzylcarbamoyl)-4-chlorophenyl)furan-2-yl)methylene)-3-methyl-5-oxo-4,5-dihydro-1H-pyrazol-1-yl)benzoic acid] as the molecule, how does the IC50 read?
Answer: The IC50 was 10 µM.
